Experimental data: US20160214963A1, “INHIBITORS OF BRUTON'S TYROSINE KINASE” (Beyond Oncology Pharmaceutical LLC, priority 2013, published 2016)
Like-named read-outs stand apart in the source and are kept apart here. Blank lines part the entries; values can stand above or below the compound they belong to.

How the values were obtained:
PDGFRB = target: T1, PDGFRB (Homo sapiens, UniProt P09619); conditions: 1 μM; cited from earlier work
T1 construct: literature Ambit

CASK = target: T2, CASK (Homo sapiens, UniProt O14936); conditions: 1 μM; cited from earlier work
T2 construct: literature Ambit
T2 sequence (O14936 1-926): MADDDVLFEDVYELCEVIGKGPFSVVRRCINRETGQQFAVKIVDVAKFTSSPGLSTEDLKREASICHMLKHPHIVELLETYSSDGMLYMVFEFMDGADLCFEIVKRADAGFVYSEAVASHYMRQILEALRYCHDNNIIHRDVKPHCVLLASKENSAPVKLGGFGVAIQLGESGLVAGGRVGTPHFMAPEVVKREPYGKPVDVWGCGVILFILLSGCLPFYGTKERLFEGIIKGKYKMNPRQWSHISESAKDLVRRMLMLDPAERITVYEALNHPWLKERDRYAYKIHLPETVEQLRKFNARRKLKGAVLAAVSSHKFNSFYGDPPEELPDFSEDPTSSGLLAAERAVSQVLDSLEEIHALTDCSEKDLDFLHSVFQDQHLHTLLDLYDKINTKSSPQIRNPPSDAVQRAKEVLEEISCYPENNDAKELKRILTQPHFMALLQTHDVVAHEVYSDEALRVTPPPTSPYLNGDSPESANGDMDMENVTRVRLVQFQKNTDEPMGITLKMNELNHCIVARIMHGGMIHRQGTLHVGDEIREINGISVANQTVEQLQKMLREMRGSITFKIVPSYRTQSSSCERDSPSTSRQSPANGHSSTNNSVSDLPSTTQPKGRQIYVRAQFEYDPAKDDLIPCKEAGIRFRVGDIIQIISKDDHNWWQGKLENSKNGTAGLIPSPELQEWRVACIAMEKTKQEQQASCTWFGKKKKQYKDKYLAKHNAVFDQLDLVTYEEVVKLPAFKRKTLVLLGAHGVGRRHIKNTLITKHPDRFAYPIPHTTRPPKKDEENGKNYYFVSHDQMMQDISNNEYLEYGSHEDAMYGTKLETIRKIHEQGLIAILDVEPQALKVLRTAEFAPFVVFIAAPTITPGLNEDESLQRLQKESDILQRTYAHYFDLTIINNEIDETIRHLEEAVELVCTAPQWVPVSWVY

BMX [1] = target: T3, BMX (Homo sapiens, UniProt P51813); conditions: at Km for ATP; cited from earlier work
T3 sequence (P51813 1-675): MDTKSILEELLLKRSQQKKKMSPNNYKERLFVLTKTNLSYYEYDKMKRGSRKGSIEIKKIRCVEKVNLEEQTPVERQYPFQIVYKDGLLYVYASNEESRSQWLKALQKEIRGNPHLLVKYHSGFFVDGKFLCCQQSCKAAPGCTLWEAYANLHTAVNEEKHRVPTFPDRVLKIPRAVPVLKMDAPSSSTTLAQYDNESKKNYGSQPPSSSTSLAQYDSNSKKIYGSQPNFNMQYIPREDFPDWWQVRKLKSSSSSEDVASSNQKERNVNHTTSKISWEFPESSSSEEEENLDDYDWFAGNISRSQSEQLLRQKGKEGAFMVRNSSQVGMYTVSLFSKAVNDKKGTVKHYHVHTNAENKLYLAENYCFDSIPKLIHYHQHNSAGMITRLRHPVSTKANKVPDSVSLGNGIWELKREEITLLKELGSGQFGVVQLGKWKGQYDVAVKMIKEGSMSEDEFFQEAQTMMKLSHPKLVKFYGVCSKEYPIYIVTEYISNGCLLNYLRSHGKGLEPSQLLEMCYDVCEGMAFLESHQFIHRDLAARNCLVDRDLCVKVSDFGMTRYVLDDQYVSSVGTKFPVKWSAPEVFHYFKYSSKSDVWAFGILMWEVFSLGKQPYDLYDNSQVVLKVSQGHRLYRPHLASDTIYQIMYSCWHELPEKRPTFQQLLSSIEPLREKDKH

MINK = target: T4, MINK (Homo sapiens, UniProt Q8N4C8); conditions: cited from earlier work
T4 construct: literature Ambit

NEK11 = target: T5, NEK11 (Homo sapiens, UniProt Q8NG66); conditions: 1 μM; cited from earlier work
T5 construct: literature Ambit
T5 sequence (Q8NG66 1-645): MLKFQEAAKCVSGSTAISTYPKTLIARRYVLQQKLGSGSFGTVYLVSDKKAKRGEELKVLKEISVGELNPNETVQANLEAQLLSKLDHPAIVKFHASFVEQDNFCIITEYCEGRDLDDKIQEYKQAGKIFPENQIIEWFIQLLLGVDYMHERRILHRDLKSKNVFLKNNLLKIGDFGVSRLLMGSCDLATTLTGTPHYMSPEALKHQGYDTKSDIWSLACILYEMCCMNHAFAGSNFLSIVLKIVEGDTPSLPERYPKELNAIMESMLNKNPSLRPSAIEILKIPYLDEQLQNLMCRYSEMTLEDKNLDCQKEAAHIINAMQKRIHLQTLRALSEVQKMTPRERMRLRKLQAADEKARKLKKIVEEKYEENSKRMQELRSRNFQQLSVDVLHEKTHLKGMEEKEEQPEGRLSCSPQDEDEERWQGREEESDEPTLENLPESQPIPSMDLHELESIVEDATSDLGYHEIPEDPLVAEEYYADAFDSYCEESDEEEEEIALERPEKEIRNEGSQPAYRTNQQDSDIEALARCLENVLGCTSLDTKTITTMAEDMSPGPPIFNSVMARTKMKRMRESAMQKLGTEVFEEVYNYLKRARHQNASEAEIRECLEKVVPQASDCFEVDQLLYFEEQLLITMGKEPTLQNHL

JAK3 = JAK3 (Homo sapiens, UniProt P52333); assay: KINOMEscan competition binding assay, Kd
Procedure: (§1) The assay is performed by combining three components: DNA-tagged kinase; immobilized ligand; and a test compound. The ability of the test compound to compete with the immobilized ligand is measured via quantitative PCR of the DNA tag. The kinase-tagged T7 phage strains were prepared in an E. coli host derived from the BL21 strain. E. coli were grown to log-phase and infected with T7 phage and incubated with shaking at 32° C. until lysis. The lysates were centrifuged and filtered to remove cell debris. The remaining kinases were produced in HEK-293 cells and subsequently tagged with DNA for qPCR detection. […] The liganded beads were blocked with excess biotin and washed with blocking buffer (SeaBlock (Pierce), 1% BSA, 0.05% Tween 20, 1 mM DTT) to remove unbound ligand and to reduce non-specific binding. […] All reactions were performed in polystyrene 96-well plates in a final volume of 0.135 ml. […] The kinase concentration in the eluates was measured by qPCR. An 11-point 3-fold serial dilution of each test compound was prepared in 100% DMSO at 100× final test concentration and subsequently diluted to 1× in the assay (final DMSO concentration=1%). […] Binding constants (Kds) were calculated with a standard dose-response curve using the Hill equation: Response=Background+(Signal−Background)/[1+(Kd^Hill Slope/Dose^Hill Slope)]. The Hill Slope was set to −1. […]

BTK = BTK (Homo sapiens, UniProt Q06187); assay: KINOMEscan competition binding assay, Kd
Procedure: as §1

TEC = target: T6, TEC (Homo sapiens, UniProt P42680); assay: KINOMEscan competition binding assay, Kd
T6 sequence (P42680 1-631): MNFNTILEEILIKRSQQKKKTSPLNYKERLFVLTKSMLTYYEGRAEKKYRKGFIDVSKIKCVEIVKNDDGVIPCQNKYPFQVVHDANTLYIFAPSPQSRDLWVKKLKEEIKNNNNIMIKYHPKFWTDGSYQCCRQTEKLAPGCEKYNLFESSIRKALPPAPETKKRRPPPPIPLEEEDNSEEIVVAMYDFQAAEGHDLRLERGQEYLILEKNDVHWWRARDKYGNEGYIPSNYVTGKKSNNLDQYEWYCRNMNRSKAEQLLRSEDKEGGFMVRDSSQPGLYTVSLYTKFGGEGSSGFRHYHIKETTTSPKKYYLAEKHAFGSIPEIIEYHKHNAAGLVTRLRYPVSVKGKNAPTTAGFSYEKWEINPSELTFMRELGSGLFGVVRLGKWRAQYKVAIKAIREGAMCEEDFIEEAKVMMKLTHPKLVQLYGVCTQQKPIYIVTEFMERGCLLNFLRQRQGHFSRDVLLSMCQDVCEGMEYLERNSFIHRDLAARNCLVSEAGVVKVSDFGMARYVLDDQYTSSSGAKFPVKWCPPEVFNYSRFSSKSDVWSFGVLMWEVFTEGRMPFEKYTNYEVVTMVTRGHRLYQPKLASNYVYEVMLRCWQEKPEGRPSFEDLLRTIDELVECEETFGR
Procedure: as §1

BMX [2] = target: T3, BMX; assay: KINOMEscan competition binding assay, Kd; parameters: DNA tag for qPCR (T7 phage display or DNA tag added after HEK-293 expression); host or cells: E. coli BL21-derived host (T7 phage) or HEK-293
Source text: The Hill Slope was set to −1.

[3] = system: systemic lupus erythematosus (SLE); conditions: mouse model of SLE; cited from earlier work
arthritis [4] = conditions: mice; cited from earlier work
arthritis [5] = conditions: 100 mg/kg oral, preventive mode; cited from earlier work
arthritis [6] = conditions: cited from earlier work
[7] = system: hypersensitive immune responses; conditions: rPCA, 30 mg/kg; cited from earlier work
[8] = system: adjuvant-induced arthritis; conditions: rat AIA, combination; cited from earlier work
[9] = system: CD69 expression in B cells; conditions: human whole blood; read-out: IC50 IgM-stimulated CD69 expression in B cells; cited from earlier work
[10] = system: histamine release in mast cells; conditions: read-out: IC50 IgE-Fce cross-linking induced histamine release; cited from earlier work
CD69 expression = conditions: oral 3, 30, 100 mg/kg, cited from earlier work
[11] = system: TNFα release in monocytes; conditions: read-out: IC50 IgG-FcγR mediated TNFα release; cited from earlier work

T4 sequence (Q8N4C8 whole entry): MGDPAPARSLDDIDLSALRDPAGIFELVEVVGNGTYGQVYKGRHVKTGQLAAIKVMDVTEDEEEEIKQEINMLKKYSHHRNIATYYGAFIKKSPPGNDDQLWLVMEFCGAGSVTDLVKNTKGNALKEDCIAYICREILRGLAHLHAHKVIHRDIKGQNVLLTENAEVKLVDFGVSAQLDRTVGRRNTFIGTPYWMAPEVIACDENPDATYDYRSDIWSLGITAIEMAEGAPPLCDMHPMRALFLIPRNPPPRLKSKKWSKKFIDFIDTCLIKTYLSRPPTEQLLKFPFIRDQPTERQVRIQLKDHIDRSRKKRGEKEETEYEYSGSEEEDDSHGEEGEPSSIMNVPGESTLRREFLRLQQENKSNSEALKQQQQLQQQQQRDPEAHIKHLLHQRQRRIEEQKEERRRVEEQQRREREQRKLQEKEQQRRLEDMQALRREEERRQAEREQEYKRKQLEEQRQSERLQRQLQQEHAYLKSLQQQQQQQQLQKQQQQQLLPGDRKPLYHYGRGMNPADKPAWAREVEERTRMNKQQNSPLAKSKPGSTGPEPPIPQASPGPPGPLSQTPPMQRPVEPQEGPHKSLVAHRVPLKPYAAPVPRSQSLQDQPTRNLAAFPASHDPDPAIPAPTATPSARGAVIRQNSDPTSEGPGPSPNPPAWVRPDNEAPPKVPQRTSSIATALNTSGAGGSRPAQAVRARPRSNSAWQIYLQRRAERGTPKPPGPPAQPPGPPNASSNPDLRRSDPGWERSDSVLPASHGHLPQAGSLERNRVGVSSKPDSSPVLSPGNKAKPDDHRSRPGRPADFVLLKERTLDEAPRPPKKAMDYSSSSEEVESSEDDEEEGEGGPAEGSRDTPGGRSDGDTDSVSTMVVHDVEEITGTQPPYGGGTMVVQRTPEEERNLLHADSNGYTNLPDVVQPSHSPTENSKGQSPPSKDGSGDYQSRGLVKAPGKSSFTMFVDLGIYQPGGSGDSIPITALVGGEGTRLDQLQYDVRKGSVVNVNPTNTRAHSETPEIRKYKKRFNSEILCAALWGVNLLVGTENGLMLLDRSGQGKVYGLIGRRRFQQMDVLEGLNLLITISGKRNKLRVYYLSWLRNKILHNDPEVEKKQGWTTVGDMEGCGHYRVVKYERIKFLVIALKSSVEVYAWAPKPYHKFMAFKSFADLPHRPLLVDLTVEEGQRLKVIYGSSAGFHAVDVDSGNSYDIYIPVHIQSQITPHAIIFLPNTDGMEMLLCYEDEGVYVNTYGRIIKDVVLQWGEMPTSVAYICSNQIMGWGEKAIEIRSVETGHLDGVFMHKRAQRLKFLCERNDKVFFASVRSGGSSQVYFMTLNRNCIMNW
Sequence of BTK (Q06187 whole entry): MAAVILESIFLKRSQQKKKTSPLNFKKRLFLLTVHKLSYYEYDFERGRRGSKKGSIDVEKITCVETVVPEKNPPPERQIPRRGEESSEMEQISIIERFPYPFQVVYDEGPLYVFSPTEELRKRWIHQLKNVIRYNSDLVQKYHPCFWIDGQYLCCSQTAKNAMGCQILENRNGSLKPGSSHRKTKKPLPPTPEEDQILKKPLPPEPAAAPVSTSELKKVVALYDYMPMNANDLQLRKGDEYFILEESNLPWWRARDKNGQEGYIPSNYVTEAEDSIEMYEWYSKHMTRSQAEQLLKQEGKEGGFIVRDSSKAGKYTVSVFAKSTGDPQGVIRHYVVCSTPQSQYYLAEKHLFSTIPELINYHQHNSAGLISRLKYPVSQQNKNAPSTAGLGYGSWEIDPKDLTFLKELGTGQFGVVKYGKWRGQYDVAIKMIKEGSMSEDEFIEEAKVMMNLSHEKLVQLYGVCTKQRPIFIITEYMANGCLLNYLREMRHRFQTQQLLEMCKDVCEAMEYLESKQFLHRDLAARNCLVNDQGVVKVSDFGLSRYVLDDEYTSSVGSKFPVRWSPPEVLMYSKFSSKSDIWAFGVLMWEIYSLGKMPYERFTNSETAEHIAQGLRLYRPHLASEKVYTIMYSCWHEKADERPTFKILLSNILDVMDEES
T1 sequence (P09619 33-1106): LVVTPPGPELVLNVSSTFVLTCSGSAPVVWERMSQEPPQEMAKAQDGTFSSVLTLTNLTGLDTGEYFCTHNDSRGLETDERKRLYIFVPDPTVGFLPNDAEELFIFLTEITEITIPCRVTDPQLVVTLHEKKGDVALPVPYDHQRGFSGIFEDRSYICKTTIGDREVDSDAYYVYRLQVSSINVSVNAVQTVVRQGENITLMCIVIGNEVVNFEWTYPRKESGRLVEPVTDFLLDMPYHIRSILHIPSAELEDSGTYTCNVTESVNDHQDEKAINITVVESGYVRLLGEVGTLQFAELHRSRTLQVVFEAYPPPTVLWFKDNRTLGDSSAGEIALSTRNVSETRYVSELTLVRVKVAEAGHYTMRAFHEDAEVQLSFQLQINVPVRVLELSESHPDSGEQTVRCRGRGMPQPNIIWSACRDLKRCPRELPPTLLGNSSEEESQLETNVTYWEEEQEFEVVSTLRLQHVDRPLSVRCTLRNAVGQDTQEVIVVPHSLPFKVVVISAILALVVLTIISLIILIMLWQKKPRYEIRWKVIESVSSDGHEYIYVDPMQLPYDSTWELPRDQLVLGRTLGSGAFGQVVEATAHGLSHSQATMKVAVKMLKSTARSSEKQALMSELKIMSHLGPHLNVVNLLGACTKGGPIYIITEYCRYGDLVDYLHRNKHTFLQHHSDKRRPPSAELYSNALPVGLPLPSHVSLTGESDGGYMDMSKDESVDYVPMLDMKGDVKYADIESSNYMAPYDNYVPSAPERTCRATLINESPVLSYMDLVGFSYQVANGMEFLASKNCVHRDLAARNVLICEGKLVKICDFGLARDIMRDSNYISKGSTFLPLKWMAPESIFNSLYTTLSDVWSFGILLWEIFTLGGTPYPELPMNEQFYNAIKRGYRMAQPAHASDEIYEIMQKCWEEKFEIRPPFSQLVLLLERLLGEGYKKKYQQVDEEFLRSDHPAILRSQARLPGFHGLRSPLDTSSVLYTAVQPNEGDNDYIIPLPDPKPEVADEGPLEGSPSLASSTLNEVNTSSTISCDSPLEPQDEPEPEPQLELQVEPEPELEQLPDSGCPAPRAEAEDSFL
Sequence of JAK3 (P52333 814-1124 limits assumed): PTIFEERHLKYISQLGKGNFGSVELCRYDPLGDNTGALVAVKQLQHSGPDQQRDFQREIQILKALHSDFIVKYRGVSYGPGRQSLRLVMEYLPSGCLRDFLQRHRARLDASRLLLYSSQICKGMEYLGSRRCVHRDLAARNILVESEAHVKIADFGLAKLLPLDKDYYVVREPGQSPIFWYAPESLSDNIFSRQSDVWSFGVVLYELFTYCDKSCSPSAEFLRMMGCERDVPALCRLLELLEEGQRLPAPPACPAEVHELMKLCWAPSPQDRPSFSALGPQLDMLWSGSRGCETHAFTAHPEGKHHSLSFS

Structure (SMILES): Cc1c(NC(=O)c2ccc(C(C)(C)C)cc2)cccc1-c1cn(C)c(=O)c(Nc2ccc(C(=O)N3CCOCC3)cc2)n1 [CGI-1746]
displacement of control ligand, PDGFRB (PDGFRB): 59%
displacement of control ligand, CASK (CASK): 69%
IC50 (BMX [1]): 1870 nM
displacement of control ligand, MINK (MINK; 1 μM): 77%
Kd (MINK; read-out: Kd MINK1): 40000 nM
displacement of control ligand, NEK11 (NEK11): 59%

Kd (JAK3): 14000 nM
Kd (BTK): 0.86 nM
selectivity for BTK over TEC, BMX (BTK; kinases inhibited the most next to BTK): > 1000 fold
Kd (TEC): 2400 nM
Kd (BMX [2]): 1300 nM
Structure (SMILES): C=CC(=O)Nc1cccc(Nc2nc(-c3cccc(-n4ncc5cc(C(C)(C)C)cc(F)c5c4=O)c3CO)cn(C)c2=O)c1 [CY-130526]

Structure (SMILES): C=CC(=O)N1CCCC(n2nc(-c3ccc(Oc4ccccc4)cc3)c3c(N)ncnc32)C1 (stereo not drawn) [PCI-32765]
auto-antibody production and development of kidney disease [3]: inhibited
course of arthritis (arthritis [4]): can reverse
level of circulating autoantibodies (arthritis [4]): reduces

Structure (SMILES): CN1CCN(c2ccc(Nc3cc(-c4cccc(-n5ccc6cc(C7CC7)cc(F)c6c5=O)c4CO)cn(C)c3=O)nc2)CC1 [RN-486]
inhibition of arthritis as measured by clinical scores (arthritis [5]): complete inhibition
disease progression (arthritis [6]; mCIA and mCAIA models): dose-dependently inhibits
progression of disease (arthritis [6]; therapeutic mode, 30 mg/kg): did not show progression of disease
effect in blocking hypersensitive immune responses [7]: 91%
effect with low dose methotrexate [8]: additive effects
IC50 [9]: 17 nM
IC50 [10]: 29.2 nM
inhibition of ex vivo anti-IgD stimulated CD69 expression (CD69 expression; 3 and 6 h postdose, all doses): completely inhibited
inhibition of ex vivo anti-IgD stimulated CD69 expression (CD69 expression; 24 h postdose): 50-80%
IC50 [11]: 4 nM
